According to patent publication EP0391077A1, “O56-alkyl derivatives of aglycone and pseudoaglycones of teicoplanin” (GRUPPO LEPETIT S.p.A., priority 1989, dated 1990):
Counter-ions that a name gives are not always drawn.

Experiment: physchem
Type: physicochemical
Conditions: methylcellosolve:water 4:1, pKMCS
Description: The potentiometric determinations reported in the examples are run in Methylcellosolve : water, 4:1 (v/v). An excess of 0.01 N HCl In this solvent mixture was added to the sample and the resulting solution was titrated with 0.01 N NaOH in the same solvent mixture. The pK value obtained under the conditions is reported below as pKMCS, wherein MCS stands for Methylcellosolve.

Structure (SMILES)	pKa
COC(=O)C1NC(=O)C2NC(=O)C(NC(=O)C3NC(=O)C4NC(=O)C(Cc5ccc(c(Cl)c5)Oc5cc3cc(c5OCCN3CCCC3)Oc3ccc(cc3Cl)C2O)NC(=O)C(N)c2ccc(O)c(c2)Oc2cc(O)cc4c2)c2ccc(O)c(c2)-c2c(O)cc(O)cc21 (centres unmarked) [Compound 13, O⁵⁶-[2-(1-pyrrolidinyl)-ethyl]deglucoteicoplanin methyl ester dihydrochloride]	6.4
COC(=O)C1NC(=O)C2NC(=O)C(NC(=O)C3NC(=O)C4NC(=O)C(Cc5ccc(c(Cl)c5)Oc5cc3cc(c5OC(CCO)C(=O)O)Oc3ccc(cc3Cl)C2O)NC(=O)C(N)c2ccc(O)c(c2)Oc2cc(O)cc4c2)c2ccc(O)c(c2)-c2c(O)cc(O)cc21 (centres unmarked) [Compound 3, O⁵⁶ -(1-carboxy-3-hydroxypropyl)deglucoteicoplanin methyl ester hydrochloride]	6
